Experimental data as given in PMC3557921 (Journal of Medicinal Chemistry, 2012).

Target: T1, β-catenin (armadillo-repeat region of human β-catenin) (Homo sapiens, UniProt P35222)
T1 sequence (P35222 134-671 limits assumed): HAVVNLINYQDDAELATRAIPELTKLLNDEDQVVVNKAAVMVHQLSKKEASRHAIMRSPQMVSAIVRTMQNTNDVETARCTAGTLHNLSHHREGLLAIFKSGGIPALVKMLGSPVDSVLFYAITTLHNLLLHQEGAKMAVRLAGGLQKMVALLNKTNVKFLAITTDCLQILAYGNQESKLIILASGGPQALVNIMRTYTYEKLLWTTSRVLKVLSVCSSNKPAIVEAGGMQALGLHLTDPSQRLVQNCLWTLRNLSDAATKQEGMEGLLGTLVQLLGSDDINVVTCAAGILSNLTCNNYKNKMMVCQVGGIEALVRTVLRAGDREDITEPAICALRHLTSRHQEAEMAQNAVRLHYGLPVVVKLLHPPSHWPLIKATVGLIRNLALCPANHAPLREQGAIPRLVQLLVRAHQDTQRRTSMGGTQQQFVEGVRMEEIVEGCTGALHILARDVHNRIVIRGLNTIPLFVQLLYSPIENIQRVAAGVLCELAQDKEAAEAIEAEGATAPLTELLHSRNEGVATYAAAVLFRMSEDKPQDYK
Test: 1D 1H STD-NMR
Type: binding
Details: 30 μM protein, 1 mM ligand; 100 mM Tris, 150 mM NaCl, 2 mM DTT, pH 7.4, 25 °C

In the case of `O=C1OC2(c3ccccc31)c1cc(Br)c(O)c(Br)c1Oc1c2cc(Br)c(O)c1Br` [eosin Y], the “1D 1H STD-NMR” value is reported as “predicted ligands fluorescein and eosin Y bind to the protein”.
